Laboratory results published in PubChem BioAssay (NCI).
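Interpolation was linear, between the two tested concentrations surrounding the appropriate level; five concentrations were tested over 48 hours in 96-well plates. GI50: concentration for 50% inhibition of growth. TGI denotes the concentration required for complete inhibition of growth.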

What was measured:
Test in all cases: NCI-60 cell line screen, 48 h
[1] = tested on: SK-MEL-2 melanoma
[2] = tested on: KM12 colon
[3] = tested on: OVCAR-3 ovarian
[4] = tested on: SW-620 colon
[5] = tested on: HCT-15 colon
[6] = tested on: HCT-116 colon
[7] = tested on: HOP-92 NSCLC
[8] = tested on: ACHN renal
[9] = tested on: SR leukemia

Compound | TGI [1] [µM] | TGI [2] [µM] | TGI [3] [µM] | TGI [4] [µM] | TGI [5] [µM] | TGI [6] [µM] | TGI [7] [µM] | TGI [8] [µM] | TGI [9] [µM] | GI50 [6] [µM] | GI50 [1] [µM] | GI50 [7] [µM] | GI50 [3] [µM] | GI50 [4] [µM] | GI50 [8] [µM] | GI50 [5] [µM]
O=C1[C@@H](c2ccc(Cl)cc2)[C@H]2CC=C[C@H]2N1O | > 100 | > 100 | > 100 | > 100 | > 100 | – | – | – | – | – | – | – | – | – | – | –
CC12CC3(C)CC(C)(C1)CC(N=[N+]=[N-])(C2)C3 | > 100 | > 100 | > 100 | > 100 | – | > 100 | > 100 | > 100 | > 100 | – | – | – | – | – | – | –
CC(=O)N(CCN)CCN | > 100 | > 10 | > 10 | > 10 | > 100 | > 10 | > 10 | > 100 | > 10 | – | – | – | – | – | – | –
Cc1cc(C)c2c(c1)CN1CN2Cc2cc(C)cc(C)c21 | – | 37.1 | 28.3 | > 100 | – | 37.2 | – | 35.9 | 39.3 | – | – | – | – | – | – | –
O=[N+]([O-])c1ccc(N=Nc2c(O)[nH]c3ccc([N+](=O)[O-])cc23)cc1 | > 100 | 30.8 | 42 | 29.5 | > 100 | – | 25.6 | 76.4 | > 100 | – | – | – | – | – | – | –
Cc1cc([N+](=O)[O-])c(C)c2c1[nH]c1ccc(/C(CCC3CCCC3)=N\N)cc12 | 30.2 | 34.9 | 36.9 | 33.5 | 29.2 | 21.7 | – | 28.8 | 55.9 | – | – | – | – | – | – | –
CC[O-].CC[O-].O=C1C(=C([O-])c2ccccc2)C(=O)c2ccccc21.O=C1C(=C([O-])c2ccccc2)C(=O)c2ccccc21.[Ti+4] | > 100 | – | > 100 | > 100 | > 100 | > 100 | > 100 | > 100 | – | > 100 | 66.3 | 95.1 | > 100 | > 100 | > 100 | 52.9
CC(C)c1cccc(C(C)C)c1NC(=O)C(=O)C(C(=O)c1ccccc1-c1ccccc1)C1OC(=O)c2ccccc21 (centres undefined) | 32.1 | 32.9 | – | 37.8 | 44.5 | 73.3 | – | > 100 | > 100 | – | – | – | – | – | – | –
N=C(N)SCc1cn2ccccc2n1 | > 100 | > 100 | > 100 | > 100 | > 100 | > 100 | – | > 100 | > 100 | – | – | – | – | – | – | –
Cc1c(C)c2cc3c(=O)ccoc3c(C)c2oc1=O | > 100 | > 100 | > 100 | > 100 | > 100 | – | – | > 100 | – | – | – | – | – | – | – | –
